We go through 26 molecules from patent US12011444B2, “N-substituted indole derivatives as PGE2 receptor modulators” (Idorsia Pharmaceuticals Ltd, priority 2015, dated 2024).

The target of one experiment is PTGER2 (EP2) (Homo sapiens (Human), UniProt P43116). As to the kind of experiment: hEP2 b-arrestin assay (PathHunter HEK 293 PTGER2 b-arrestin cells). The class given is cell-based. In short, it runs like this: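 Readout is β-galactosidase complementation luminescence, expressed as percent of DMSO control (duplicates). PathHunter HEK293 EP2/β-arrestin 2 cells, grown 24 h, received compound for 15 min at 37 °C before a 120 min challenge with PGE2 at 5 μM final, followed by 1 h detection at room temperature.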

In another experiment the target is PTRGER4 (EP4) (Homo sapiens (Human), UniProt P35408). Put plainly: hEP4 b-arrestin assay (PathHunter HEK 293 PTGER4 b-arrestin cells). The class given is cell-based. In short, it runs like this: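 Antagonist mode: compound is given 15 min at 37 °C, then 20 nM (final) PGE2 for 120 min, in HEK293 cells stably expressing EP4 fused to ProLink and β-arrestin 2 fused to EA. Recruitment read as β-gal luminescence after 1 h reagent at room temperature, as percent of DMSO control.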

Where [1] appears, read: antagonistic activity on hEP2, mean where measured multiple times.
[2] abbreviates: antagonistic activity on hEP4, mean where measured multiple times.
Where [3] appears, read: hEP2 b-arrestin assay (values without asterisk).
The mark [4] stands for this setting: hEP4 b-arrestin assay (values without asterisk).

Chain of PTGER2 (EP2) (P43116 whole entry): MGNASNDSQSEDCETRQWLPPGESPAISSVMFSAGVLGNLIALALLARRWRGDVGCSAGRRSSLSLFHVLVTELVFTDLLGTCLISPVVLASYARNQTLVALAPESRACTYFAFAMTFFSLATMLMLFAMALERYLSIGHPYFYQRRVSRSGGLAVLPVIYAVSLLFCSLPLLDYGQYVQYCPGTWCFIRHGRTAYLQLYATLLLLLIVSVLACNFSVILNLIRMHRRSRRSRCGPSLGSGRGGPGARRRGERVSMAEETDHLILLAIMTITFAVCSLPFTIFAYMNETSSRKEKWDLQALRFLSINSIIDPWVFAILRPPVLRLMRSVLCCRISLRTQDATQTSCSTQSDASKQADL
Chain of PTRGER4 (EP4) (P35408 whole entry, looked up, the tested form may be a part): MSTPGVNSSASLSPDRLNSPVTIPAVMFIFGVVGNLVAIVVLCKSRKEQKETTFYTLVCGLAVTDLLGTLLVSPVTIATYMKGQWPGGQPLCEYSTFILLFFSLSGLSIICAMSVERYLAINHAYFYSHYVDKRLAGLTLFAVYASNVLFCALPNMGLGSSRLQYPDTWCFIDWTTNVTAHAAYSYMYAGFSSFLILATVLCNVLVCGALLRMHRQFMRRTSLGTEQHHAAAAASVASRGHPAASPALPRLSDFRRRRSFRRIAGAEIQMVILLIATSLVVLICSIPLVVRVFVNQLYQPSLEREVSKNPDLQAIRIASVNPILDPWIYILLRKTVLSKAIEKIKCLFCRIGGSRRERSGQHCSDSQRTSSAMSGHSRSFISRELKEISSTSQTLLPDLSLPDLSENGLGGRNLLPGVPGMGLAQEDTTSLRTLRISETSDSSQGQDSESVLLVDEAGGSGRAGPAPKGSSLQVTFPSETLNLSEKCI

For orientation: IC50 means the concentration needed to halve the response being measured. Higher therefore signals weaker potency in that assay. `CCCc1cc(-c2cc(NCCn3c(C)cc4c(OC)c(F)cc(F)c43)ncn2)ccc1C(=O)O` [compound 373]: the half-inhibitory concentration (IC50) was 0.079 µM against PTGER2 (EP2) (setting [1]) and 0.183 µM at PTRGER4 (EP4) (setting [2]).

`Cc1ccc(F)c2c1cc(C)n2CCNc1cc(-c2ccc(CO)c(F)c2)ncn1` [compound 21, (2-Fluoro-4-{6-[2-(7-fluoro-2,4-dimethyl-indol-1-yl)-ethylamino]-pyrimidin-4-yl}-phenyl)-methanol]: the IC50 against PTGER2 (EP2) (setting [1]) was found to be 0.042 µM; against PTRGER4 (EP4) (setting [2]) it was 0.287 µM.

With `COc1ccc(F)c2c1cc(C)n2CCNc1cc(-c2ccc(C(=O)O)c(C)c2)ncn1` [compound 233], the IC50 is 0.052 µM against PTGER2 (EP2) (setting [1]) and 0.317 µM on PTRGER4 (EP4) (setting [2]).

On to `CNc1cc(-c2cc(NCCn3c(C)cc4c(OC)cccc43)ncn2)ccc1C(=O)O` [compound 213], for which the values for the IC50 against PTGER2 (EP2) (setting [1]) and at PTRGER4 (EP4) (setting [2]) were 0.003 µM and 0.204 µM, respectively.

`CCCSc1cc(-c2cc(NCCn3c(C#N)cc4c(OC)ccc(F)c43)ncn2)ccc1C(=O)O` [Example 935, 4-{6-[2-(2-Cyano-7-fluoro-4-methoxy-indol-1-yl)-ethylamino]-pyrimidin-4-yl}-2-propylsulfanyl-benzoic acid]: the IC50 was determined as 0.007 µM against PTGER2 (EP2) (setting [3]) and 0.004 µM at PTRGER4 (EP4) (setting [4]).

As to `CCOc1cc(-c2cc(NCCn3c(C#N)cc4c(OC)ccc(F)c43)ncn2)ccc1S(N)(=O)=O` [Example 929, 4-{6-[2-(2-Cyano-7-fluoro-4-methoxy-indol-1-yl)-ethylamino]-pyrimidin-4-yl}-2-ethoxy-benzenesulfonamide], the results for the IC50 on PTGER2 (EP2) (setting [3]) and at PTRGER4 (EP4) (setting [4]) were 0.02 µM and 0.033 µM, respectively.

Turning to `Cc1cc(-c2cc(NCCn3c(C)cc4c(Cl)ccc(F)c43)ncn2)ccc1C(=O)O` [compound 106], the IC50 on PTGER2 (EP2) (setting [1]) worked out at 0.044 µM; at PTRGER4 (EP4) (setting [2]), 0.698 µM.

In the case of `CCNc1csc(-c2cc(NCCn3c(C)cc4c(OC)ccc(F)c43)ncn2)c1` [Example 1067, [6-(4-Ethylamino-thiophen-2-yl)-pyrimidin-4-yl]-[2-(7-fluoro-4-methoxy-2-methyl-indol-1-yl)-ethyl]-amine], the concentration for half-maximal inhibition (IC50) at PTGER2 (EP2) (setting [3]) is 0.088 µM; against PTRGER4 (EP4) (setting [4]), 0.067 µM.

As for `CCOc1cc(-c2cc(NCCn3c(C)cc4c(OC)ccc(F)c43)ncn2)sc1NC(=O)CC` [Example 1073, N-(3-Ethoxy-5-{6-[2-(7-fluoro-4-methoxy-2-methyl-indol-1-yl)-ethylamino]-pyrimidin-4-yl}-thiophen-2-yl)-propionamide], the figures for the IC50 on PTGER2 (EP2) (setting [3]) and at PTRGER4 (EP4) (setting [4]) were 0.007 µM and 0.014 µM, respectively.

On to `COc1ccc(F)c2c1cc(C)n2CCNc1cc(-c2ccc(O)c(OC(F)(F)F)c2)ncn1` [Example 874, 4-{6-[2-(7-Fluoro-4-methoxy-2-methyl-indol-1-yl)-ethylamino]-pyrimidin-4-yl}-2-trifluoromethoxy-phenol], for which the IC50 against PTGER2 (EP2) (setting [3]) was found to be 0.004 µM; against PTRGER4 (EP4) (setting [4]) it was 0.019 µM.

`CCOc1cc(-c2cc(NCCn3c(C#N)cc4c(Cl)cccc43)ncn2)ccc1NCC(=O)O` [Example 915, (4-{6-[2-(4-Chloro-2-cyano-indol-1-yl)-ethylamino]-pyrimidin-4-yl}-2-ethoxy-phenylamino)-acetic acid]: the IC50 at PTGER2 (EP2) (setting [3]) was found to be 0.012 µM; against PTRGER4 (EP4) (setting [4]), 0.027 µM.

Turning to `CCOc1cc(-c2cc(NCCn3c(C)cc4cc(OC)cc(F)c43)ncn2)sc1C(=O)O` [compound 259], the IC50 is 0.037 µM against PTGER2 (EP2) (setting [1]) and 0.127 µM against PTRGER4 (EP4) (setting [2]).

As for `CCOc1cc(-c2cc(NCCn3c(C)cc4ccc(OC)cc43)ncn2)ccc1C(=O)O` [compound 255], the values for the IC50 on PTGER2 (EP2) (setting [1]) and against PTRGER4 (EP4) (setting [2]) were 0.012 µM and 0.896 µM, respectively.

As for `CCCSc1cc(-c2cc(NCCn3c(C)cc4c(C)c(F)cc(Cl)c43)ncn2)ccc1C(=O)O` [compound 371], the IC50 on PTGER2 (EP2) (setting [1]) was 0.07 µM; against PTRGER4 (EP4) (setting [2]) it was 0.875 µM.

For the molecule `COc1cccc2c1cc(C)n2CCNc1cc(-c2ccc(-n3cccn3)cc2)ncn1` [compound 78, [2-(4-Methoxy-2-methyl-indol-1-yl)-ethyl]-[6-(4-pyrazol-1-yl-phenyl)-pyrimidin-4-yl]-amine], the results for the IC50 against PTGER2 (EP2) (setting [1]) and at PTRGER4 (EP4) (setting [2]) were 0.02 µM and 0.557 µM, respectively.

For `CNc1cc(-c2cc(NCCn3c(C#N)cc4c(OC)cccc43)ncn2)ccc1C(=O)O` [Example 958, 4-{6-[2-(2-Cyano-4-methoxy-indol-1-yl)-ethylamino]-pyrimidin-4-yl}-2-methylamino-benzoic acid], the values for the IC50 against PTGER2 (EP2) (setting [3]) and on PTRGER4 (EP4) (setting [4]) were 0.013 µM and 0.018 µM, respectively.

Consider `CCOc1cc(-c2cc(NCCn3c(C)cc4cc(F)c(Cl)c(Cl)c43)ncn2)sc1C(=O)O` [compound 272], for which the IC50 against PTGER2 (EP2) (setting [1]) is 0.008 µM; on PTRGER4 (EP4) (setting [2]), 0.716 µM.

With `CSc1cc(-c2cc(NCCn3c(C)cc4c(F)c(F)cc(Cl)c43)ncn2)cc(Cl)c1C(=O)O` [compound 339, 2-Chloro-4-{6-[2-(7-chloro-4,5-difluoro-2-methyl-indol-1-yl)-ethylamino]-pyrimidin-4-yl}-6-methylsulfanyl-benzoic acid], the IC50 against PTGER2 (EP2) (setting [1]) was 0.005 µM; against PTRGER4 (EP4) (setting [2]) it was 0.989 µM.

Turning to `CCOC(=O)c1csc(-c2cc(NCCn3c(C#N)cc4c(OC)ccc(F)c43)ncn2)c1` [Example 1009, 5-{6-[2-(2-Cyano-7-fluoro-4-methoxy-indol-1-yl)-ethylamino]-pyrimidin-4-yl}-thiophene-3-carboxylic acid ethyl ester], the IC50 on PTGER2 (EP2) (setting [3]) worked out at 0.02 µM; on PTRGER4 (EP4) (setting [4]), 0.011 µM.

For `COc1cc(-c2cc(NCCn3c(C)cc4c(C)cc(F)cc43)ncn2)ccc1C(=O)O` [compound 232], the results for the IC50 at PTGER2 (EP2) (setting [1]) and at PTRGER4 (EP4) (setting [2]) were 0.021 µM and 0.732 µM, respectively.

Take `CCOc1cc(-c2cc(NCCn3c(C)cc4c(OC)c(F)cc(F)c43)ncn2)ccc1C(=O)O` [compound 364]: the IC50 was determined as 0.084 µM on PTGER2 (EP2) (setting [1]) and 0.543 µM against PTRGER4 (EP4) (setting [2]).

For the molecule `COC(=O)c1ccc2[nH]c(-c3cc(NCCn4c(C#N)cc5c(OC)ccc(F)c54)ncn3)cc2c1` [Example 962, 2-{6-[2-(2-Cyano-7-fluoro-4-methoxy-indol-1-yl)-ethylamino]-pyrimidin-4-yl}-1H-indole-5-carboxylic acid methyl ester], the results for the IC50 against PTGER2 (EP2) (setting [3]) and against PTRGER4 (EP4) (setting [4]) were 0.003 µM and 0.011 µM, respectively.

Turning to `COc1cccc2c1cc(C)n2CCNc1cc(-c2ccc(CO)c(C)c2)ncn1` [compound 13, (4-{6-[2-(4-Methoxy-2-methyl-indol-1-yl)-ethylamino]-pyrimidin-4-yl}-2-methyl-phenyl)-methanol], the IC50 at PTGER2 (EP2) (setting [1]) was 0.014 µM; at PTRGER4 (EP4) (setting [2]) it was 0.428 µM.

For `N#Cc1cc2c(Cl)cc(F)c(F)c2n1CCNc1cc(-c2cc(C(F)(F)F)c(C(=O)O)s2)ncn1` [Example 912, 5-{6-[2-(4-Chloro-2-cyano-6,7-difluoro-indol-1-yl)-ethylamino]pyrimidin-4-yl}-3-trifluoromethyl-thiophene-2-carboxylic acid], the values for the IC50 on PTGER2 (EP2) (setting [3]) and against PTRGER4 (EP4) (setting [4]) were 0.004 µM and 0.029 µM, respectively.

`CCOc1cc(-c2cc(NCCn3c(C)cc4cc(F)c(F)c(F)c43)ncn2)sc1C(=O)O` [compound 273]: the IC50 at PTGER2 (EP2) (setting [1]) was 0.001 µM; on PTRGER4 (EP4) (setting [2]), 0.067 µM.

Turning to `CCCc1cc(-c2cc(NCCn3c(C#N)cc4c(OC)ccc(F)c43)ncn2)ccc1C(=O)O` [Example 947, 4-{6-[2-(2-Cyano-7-fluoro-4-methoxy-indol-1-yl)-ethylamino]-pyrimidin-4-yl}-2-propyl-benzoic acid], the IC50 on PTGER2 (EP2) (setting [3]) turned out to be 0.03 µM; against PTRGER4 (EP4) (setting [4]), 0.016 µM.
